Experimental data: patent US8518958B2, “Pyrido [2,3-D] pyrimidines and their use as kinase inhibitors” (Forma Therapeutics, Inc., priority 2006, dated 2013)

Columns and labels:
B-Raf delta1-415 = B-Raf delta1-415 (Homo sapiens, UniProt P15056); assay: B-Raf kinase inhibition (MAPH filter plate, 33P-ATP, MEK1 substrate); details: read-out: Biochemical IC50 B-Raf
Summary of the method: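 Radiometric filter-binding assay with B-Raf delta1-415 at a level giving 50% turnover, MEK1 substrate and 33P-ATP (12.5 μCi/ml) in 20 mM Mops pH 7.0 with Mg/Mn, 1 h at room temperature. Inhibitor dilution series from 10 μM; EDTA-stopped reactions captured on phosphocellulose filters, counted by scintillation for IC50.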

HT-29 tumor cells = assay: Anti-proliferative activity, SRB assay; format: cell-based, human; details: Homo sapiens, HT-29, 72 h, 72 hours exposure, read-out: CELLULAR IC50 HT-29
Summary of the method: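 Cells at 3,000-15,000/well, plated 24 h before compound, exposed to a concentration range for 72 hours. Proliferation measured by SRB staining after cold TCA fixation, absorbance at OD570; IC50 estimated from % inhibition versus DMSO-treated cells.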

Sequence of B-Raf delta1-415 (P15056 416-766): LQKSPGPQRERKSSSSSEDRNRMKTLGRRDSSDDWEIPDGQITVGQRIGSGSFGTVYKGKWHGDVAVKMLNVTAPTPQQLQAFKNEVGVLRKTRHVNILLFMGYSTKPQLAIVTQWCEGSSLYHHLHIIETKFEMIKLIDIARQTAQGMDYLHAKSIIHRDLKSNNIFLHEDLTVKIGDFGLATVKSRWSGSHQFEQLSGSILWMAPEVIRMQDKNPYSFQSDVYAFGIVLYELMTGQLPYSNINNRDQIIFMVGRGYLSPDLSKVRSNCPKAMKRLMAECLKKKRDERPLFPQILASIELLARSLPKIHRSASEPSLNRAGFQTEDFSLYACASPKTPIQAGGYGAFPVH

Row | IC50 (B-Raf delta1-415) [nM] | IC50 (HT-29 tumor cells) [nM] | SMILES
1 | < 100 | < 1000 | COn1c(=O)c(-c2c(Cl)cccc2Cl)cc2cnc(Nc3cccc(S(=O)(=O)NCCO)c3)nc21 [Compound 126, 6-(2,6-Dichlorophenyl)-2-(3-(2-hydroxyethyl)aminosulfonyl-phenyl)-amino-8-methoxy-pyrido[2,3-d]pyrimidin-7-one]
2 | < 500 | < 1000 | COn1c(=O)c(-c2c(Cl)cccc2Cl)cc2cnc(Nc3cc(C(=O)NCCO)n(C)c3)nc21 [Compound 82, 6-(2,6-Dichlorophenyl)-2-(5-(2-hydroxyethyl)aminocarbonyl-1-methyl-pyrrol-3-yl)-amino-8-methoxy-pyrido[2,3-d]pyrimidin-7-one]
3 | < 100 | < 1000 | COn1c(=O)c(-c2c(Cl)cccc2Cl)cc2cnc(Nc3ccc(N4CCOCC4)cc3)nc21 [Compound 98, 6-(2,6-Dichlorophenyl)-8-methoxy-2-(4-morpholinophenyl)-amino-pyrido[2,3-d]pyrimidin-7-one]
4 | < 500 | < 1000 | O=c1c(-c2c(Cl)cccc2Cl)cc2cnc(Nc3ccc(N4CCNCC4)cc3)nc2n1OCC1CCOCC1 [Compound 202, 6-(2,6-Dichlorophenyl)-8-(tetrahydropyran-4-ylmethyl)oxy-2-(4-piperazinophenyl)-amino-pyrido[2,3-d]pyrimidin-7-one]
5 | < 500 | < 1000 | COn1c(=O)c(-c2c(Cl)cccc2Cl)cc2cnc(Nc3ccc(SCCCO)cc3)nc21 [Compound 158, 6-(2,6-Dichlorophenyl)-2-(4-(3-hydroxypropyl)thiophenyl)-amino-8-methoxy-pyrido[2,3-d]pyrimidin-7-one]
6 | < 500 | < 1000 | COn1c(=O)c(-c2c(Cl)cccc2Cl)cc2cnc(Nc3ccc(CN4CCC[C@H]4CO)cc3)nc21 [Compound 169, 6-(2,6-Dichlorophenyl)-2-(4-(2-(S)-hydroxymethyl-pyrrolidinomethyl)phenyl)-amino-8-methoxy-pyrido[2,3-d]pyrimidin-7-one]
7 | < 10000 | < 10000 | COn1c(=O)c(-c2c(Cl)cccc2Cl)cc2cnc(NCc3ccccc3)nc21 [Compound 145, 6-(2,6-Dichlorophenyl)-8-methoxy-2-phenylmethylamino-pyrido[2,3-d]pyrimidin-7-one]
8 | < 500 | < 1000 | CCNS(=O)(=O)c1cccc(Nc2ncc3cc(-c4c(Cl)cccc4Cl)c(=O)n(OC)c3n2)c1 [Compound 122, 6-(2,6-Dichlorophenyl)-2-(3-ethylaminosulfonylphenyl)-amino-8-methoxy-pyrido[2,3-d]pyrimidin-7-one]
9 | < 500 | < 1000 | COCCOn1c(=O)c(-c2c(Cl)cccc2Cl)cc2cnc(Nc3cc(C(=O)NCCN4CCCC4)n(C)c3)nc21 [Compound 99, 6-(2,6-Dichlorophenyl)-8-(2-methoxyethyl)oxy-2-(5-(2-pyrrolidinoethyl)aminocarbonyl-1-methyl-pyrrol-3-yl)-amino-pyrido[2,3-d]pyrimidin-7-one]
10 | < 500 | < 1000 | COn1c(=O)c(-c2c(F)cccc2Cl)cc2cnc(Nc3cc(C(=O)N4CCOCC4)n(C)c3)nc21 [Compound 197, 6-(2-Chloro-6-fluorophenyl)-8-methoxy-2-(5-morpholinocarbonyl-1-methyl-pyrrol-3-yl)-amino-pyrido[2,3-d]pyrimidin-7-one]
11 | < 500 | < 10000 | COn1c(=O)c(-c2c(Cl)cccc2Cl)cc2cnc(NCCO)nc21 [Compound 102, 6-(2,6-Dichlorophenyl)-2-hydroxyethylamino-8-methoxy-pyrido[2,3-d]pyrimidin-7-one]
12 | > 1000 | < 10000 | O=c1c(-c2ccccc2Cl)cc2cnc(Nc3ccccc3)nc2n1O [Compound 240, 6-(2-Chlorophenyl)-8-hydroxy-2-phenylamino-pyrido[2,3-d]pyrimidin-7-one]
13 | < 500 | < 1000 | COCCOn1c(=O)c(-c2c(Cl)cccc2Cl)cc2cnc(Nc3cc(C(=O)N(C)CCOC)n(C)c3)nc21 [Compound 170, 6-(2,6-Dichlorophenyl)-8-(2-methoxyethyl)oxy-2-(5-N-(2-methoxyethyl)-N-methyl-aminocarbonyl-1-methyl-pyrrol-3-yl)-amino-pyrido[2,3-d]pyrimidin-7-one]
14 | < 100 | < 1000 | COn1c(=O)c(-c2c(F)cccc2Cl)cc2cnc(Nc3cc(C(=O)N4CCNCC4)n(C)c3)nc21 [Compound 208, 6-(2-Chloro-6-fluorophenyl)-8-methoxy-2-(5-piperazinocarbonyl-1-methyl-pyrrol-3-yl)-amino-pyrido[2,3-d]pyrimidin-7-one]
15 | < 100 | < 1000 | COn1c(=O)c(-c2c(F)cccc2Cl)cc2cnc(Nc3ccc(N4CCNCC4)cc3)nc21 [Compound 198, 6-(2-Chloro-6-fluorophenyl)-8-methoxy-2-(4-piperazinophenyl)-amino-pyrido[2,3-d]pyrimidin-7-one]
16 | < 500 | < 1000 | COn1c(=O)c(-c2c(Cl)cccc2Cl)cc2cnc(Nc3ccc(N4CCN(C(C)C)CC4)cc3)nc21 [Compound 187]
17 | < 500 | < 1000 | COn1c(=O)c(-c2c(Cl)cccc2Cl)cc2cnc(Nc3cc(C(=O)N(C)CCOC(=O)c4cccnc4)n(C)c3)nc21 [Compound 159]
18 | < 500 | < 1000 | COC(=O)c1cc(Nc2ncc3cc(-c4c(C)cccc4C)c(=O)n(OC)c3n2)cn1C [Compound 79]
19 | < 100 | < 1000 | O=c1c(-c2c(F)cccc2Cl)cc2cnc(Nc3ccc(N4CCOCC4)cc3)nc2n1OCC1CCOCC1 [Compound 143]
20 | < 100 | < 1000 | COn1c(=O)c(-c2c(Cl)cccc2Cl)cc2cnc(Nc3ccc(OCCO)cc3)nc21 [Compound 89, 6-(2,6-Dichlorophenyl)-2-(4-(2-hydroxyethyl)oxyphenyl) amino-8-methoxy-pyrido[2,3-d]pyrimidin-7-one]
21 | < 100 | < 1000 | CNC(=O)c1cccc(Nc2ncc3cc(-c4c(Cl)cccc4Cl)c(=O)n(OC)c3n2)c1 [Compound 131, 6-(2,6-Dichlorophenyl)-8-methoxy-2-(3-methylaminocarbonylphenyl)-amino-pyrido[2,3-d]pyrimidin-7-one]
22 | < 500 | < 1000 | CCN(CC)CCNC(=O)c1cc(Nc2ncc3cc(-c4c(Cl)cccc4Cl)c(=O)n(OC)c3n2)cn1C [Compound 81, 6-(2,6-Dichlorophenyl)-2-(5-(2-diethylaminoethyl)aminocarbonyl-1-methyl-pyrrol-3-yl)-amino-8-methoxy-pyrido[2,3-d]pyrimidin-7-one]
23 | < 100 | < 1000 | COn1c(=O)c(-c2c(Cl)cccc2Cl)cc2cnc(Nc3csc(C(=O)N4CCN(C)CC4)c3)nc21 [Compound 142, 6-(2,6-Dichlorophenyl)-8-methoxy-2-(5-(4-methylpiperazino)carbonyl-thiophen-3-yl)-amino-pyrido[2,3-d]pyrimidin-7-one]
24 | < 500 | < 1000 | COn1c(=O)c(-c2c(Cl)cccc2Cl)cc2cnc(Nc3cc(C(=O)N4CCN(C)CC4)n(C)c3)nc21 [Compound 163, 6-(2,6-Dichlorophenyl)-8-methoxy-2-(5-(4-methylpiperazino)carbonyl-1-methyl-pyrrol-3-yl)-amino-pyrido[2,3-d]pyrimidin-7-one]
